A melting point compilation (Tetko et al.; mined from patent text by program, amines drawn as free bases though some values may be those of a salt)

| SMILES | melting point [°C] |
| --- | --- |
| Cc1ccn2c(-c3ccnc(-c4ccc(CN5CCOCC5)cc4)c3)c(-c3cccc(C)n3)nc2c1 | 188 |
| CN1CCN(c2cccc(-c3cnn4c(N)c(Cc5ccccc5)cnc34)c2)CC1 | 72 to 75 |
| NP(N)(=S)N1CCCCC1 | 97 to 102 |
| OC(CC1CCN(Cc2ccccc2)CC1)c1ccc(F)cc1 (stereo unspecified) | 84 to 86 |
| CC(C)CS(=O)(=O)c1ccc(N)c(S(=O)(=O)CC(C)C)c1 | 118 to 120 |
| OC1COC(c2ccccc2)OC1 (stereo unspecified) | 83 to 84 |
| CCCC(CCNC(=O)CC#N)NC(=O)CC#N (stereo unspecified) | 141 |
| CC(C=O)Oc1ccc(OCc2ccccc2)cc1 (stereo unspecified) | 50 to 51 |
| Nc1ccc(-c2ccccc2)cc1N | 96 to 99 |
| COc1cc(CO[Si](C(C)C)(C(C)C)C(C)C)ccc1OCc1nc(-c2cccc(-c3nnn[nH]3)c2)oc1C | 152 to 153 |
| Fc1ccc2[nH]cc(C3=CCN(CC4CCc5ccc6ncccc6c5O4)CC3)c2c1 (stereo unspecified) | 148 |
| Cc1ccc(S(=O)(=O)NP(N)(N)=O)cc1 | 114 to 118 |
| O=C(NCc1ccsc1)N(O)CCO | 114 to 115 |
| O=C(NCCNC(=O)C1CCN(c2c(Cl)cncc2Cl)CC1)c1ccccc1 | 209 to 211 |
| Cc1nnc(-c2ccc3occ(-c4ccccn4)c3c2)o1 | 148 to 149 |
| COc1ccc(-c2nc(Cl)c(Oc3ccccc3OC)c(Cl)n2)cc1 | 113 to 114 |
| O=C1[C@H]2CCC[C@H]2Nc2ccc(F)cc2N1Cc1ccccc1 (relative stereo) | 124 to 126 |
| O=C(c1ccc(-c2ccc(-c3ccc(-c4ccc(C(=O)c5c(F)c(F)c(F)c(F)c5F)s4)s3)s2)s1)c1c(F)c(F)c(F)c(F)c1F | 291 to 294 |
| COc1c2occc2c(OC)c2c(=O)cc(N3CCC(C4CCN(c5cc(=O)c6c(OC)c7ccoc7c(OC)c6o5)CC4)CC3)oc12 | 126 to 129 |
| Clc1ccc2c(c1)C(c1ccccc1Cl)OCc1nnc(Br)n1-2 (stereo unspecified) | 167 to 168 |
| Cc1nc(-c2ccncc2)sc1-c1cccnc1 | 113 to 114 |
| COc1ccc(S(=O)(=O)Nc2cccnc2Nc2ccccc2)c(OC)c1 | 176 to 178 |
| COC(=O)Cc1ccc(OCCNC(=O)C2Cc3ccccc3N2S(=O)(=O)c2ccc(-c3cc(Cl)ccc3Cl)cc2)cc1 (stereo unspecified) | 61 to 65 |
| CC(C)c1cccc(C(C)C)c1N1C(=O)c2cccc3c(C(N)=O)ccc(c23)C1=O | 233 |
| OC1CC(c2ccc(Oc3ccc(-c4ccc(Cl)cc4)cc3)cc2)Cc2ccccc21 (stereo unspecified) | 156 |

| SMILES | melting point [°C] |
| --- | --- |
| O=S1(=O)CCC(NCCNC2CCS(=O)(=O)C2)C1 (stereo unspecified) | 60 to 85 |
| Oc1ccc2c(c1)nnc1ccccc12 | 274 to 277 |
| CN(C)C1=NC(NC(=O)CC2CCCCC2)C(=O)N(c2ccccc2)c2ccccc21 (stereo unspecified) | 264 to 266 |
| CN(C)C1=NC(=O)C(Cc2cccc(-c3ccc(O)c(C45CC6CC(CC(C6)C4)C5)c3)c2)S1 (stereo unspecified) | 243 to 246 |
| c1ccc(-c2ccc3c(CCN4CCCCC4)c(-c4ccccc4)[nH]c3c2)cc1 | 129 to 131 |
| Cc1nc(-c2ccc(-c3ccc(C(=O)Nc4ccc5c(c4)OC(CN(C)C)CO5)cc3)c(C)c2)no1 (stereo unspecified) | 92 to 94 |
| CNC(=O)c1cc2ccccc2c(-c2cccc(I)c2)n1 | 172 to 174 |
| COc1ccc2c(c1)N(C)C(=O)C2C (stereo unspecified) | 44 to 46 |
| O=c1cc[nH]c2c([N+](=O)[O-])cc(Cl)cc12 | 238 to 241 |
| CCc1cc2cc(OC)c(Cl)c(Cl)c2s1 | 73 to 74.5 |
| O=C1c2ccccc2CC(=NO)c2ccccc21 | 186 |
| CC(O)CC1NC(=O)c2sccc2-n2cccc21 (stereo unspecified) | 170 |
| COC(=O)c1nn(-c2ccc(Cl)cc2Cl)c(-c2ccc(Cl)cc2)c1CBr | 145 |
| O=c1[nH]c2cc(-c3ncc[nH]3)c([N+](=O)[O-])cc2[nH]c1=O | > 300 |
| COc1ccc(-n2c(C)nc3ccccc32)cc1 | 121 to 123 |
| CC[C@H]1Oc2ccccc2C(=O)N2CCC[C@@H]12 | 118 to 119 |
| Cc1ccc(Cl)cc1N1C(=O)CON(C)C1=S | 100 to 102 |
| O=c1c2ccccc2n(CCCCN2CCC(OC(c3ccccc3)c3ccccc3)CC2)c(=O)n1CCO | 145 to 150 |
| O=c1c2ccccc2n(SC(Cl)(Cl)Cl)c(=O)n1SC(Cl)(Cl)Cl | 154 to 156 |
| CCCCC(O)CNCCCCCCCCCCNCC(O)CCCC (stereo unspecified) | 127 to 137 |
| C[C@H](C(=O)O)[C@H](O)c1ccccc1 | 89 to 90 |
| CCC1(CC)CN(C(C)(C)C)C(=O)C(C)(CC)N1OC(C)c1ccccc1 (stereo unspecified) | 76 to 79 |
| COc1cc2c(cc1Nc1ncc(Cl)c(Nc3ccc(N4CCOCC4)cc3OC)n1)CCOC(=O)N2C | 242 to 245 |
| COc1ccc2[nH]c(Sc3ccc(C=O)o3)nc2c1 | 94 to 99 |

Further lines, results first:

| melting point [°C] | SMILES |
| --- | --- |
| 124 to 126 | CCCc1nn(-c2ccc(C(F)(F)F)cn2)cc1CCCOc1cc(CC(=O)O)ccc1OC |
| 237 to 239 | COc1cc(C(=O)c2sc(NC(=O)c3ccncc3)nc2-c2ccco2)ccn1 |
| 96 to 97 | CCOc1cccc(S(=O)(=O)c2ccc(C)nc2Nc2c(C)cc(C)cc2C)c1 |
| 60 | COc1cccc(N(CC(=O)OC(C)(C)C)C(=O)CNC(=O)Nc2cccc(C)c2)c1 |
| 165 | CCOC(=O)c1ncn2c1nc(N1CCOCC1)c1ccccc12 |
| 220 to 224 | Cc1ccnc(C(=O)c2[nH]c3cc(Cl)c(Cl)cc3c2CC(=O)O)c1 |
| 282 | Cc1ccc(N2C(=O)C(O)=C(C(=O)c3ccc(C(C)C)cc3)C2c2ccc(OC(C)C)nc2)nn1 (stereo unspecified) |
| 97 to 98 | CCC(=O)N(N(CCCl)S(C)(=O)=O)S(C)(=O)=O |
| 176 to 178 | CCn1cc(C)c(NS(=O)(=O)c2ccc(N)cc2)nc1=O |
| 101 to 102 | CCOC(=O)Cc1cccc(C(=O)c2ccc(Cl)cc2)c1N |
| 182 | CCCNC(=S)NS(=O)(=O)c1cc2c(cc1OC)OCC(NC(=O)c1cc(Cl)ccc1OC)C2 (stereo unspecified) |
| 204 to 205 | CNc1nc(N)nc(OCC(F)(F)F)n1 |
| 222 | COC(=O)c1ccc(C=CC(=O)N2CCc3c([nH]c4ccccc34)C2c2ccccc2)cc1 (stereo unspecified) |
| 169 to 170 | Cc1c(CNCC(C)(C)C)n(C)c2ccc(NC(=O)c3ccc(OCC4CC4)cc3)cc12 |
| 189 to 190 | CO/C(=C\C=C\c1cc2ccccc2[nH]1)C(=O)O |
| 125 to 127 | CCOC(=O)c1cc2n(c1)C(C)N(C(=O)OCC)c1ccccc1-2 (stereo unspecified) |
| 88 to 94 | CC1N(C(=O)c2ccc(OCC(F)(F)C(F)F)cc2)CC(=O)OC1(Cn1cncn1)c1ccc(Cl)cc1Cl (stereo unspecified) |
| 247 to 249 | CC(C)(C)c1ccc2nc(N3CCN(c4ncccc4C(F)(F)F)CC3)[nH]c2c1 |
| 262 to 265 | CCCn1c(=O)c2c(NC)n[nH]c2n(Cc2ccc(F)cc2)c1=O |
| 103 to 105 | CC(C#CC1CC(Oc2ccc(OC(F)(F)F)cc2)C1)N(O)C(N)=O (single isomer, unassigned; (+)) |
| 103 to 104 | CCOC(=O)C1(C(C)C)OC2(O)C3CCCN3C(=O)C(C(C)C)N2C1=O (stereo unspecified) |
| 58 to 60 | CCN(Cc1csc(C(C)C)n1)C(=O)N[C@H](C(=O)N[C@@H](Cc1ccccc1)C[C@H](O)[C@H](Cc1ccccc1)NC(=O)OCc1cncs1)C(C)C |
| 93 | CC(=O)Nc1ccc2c(c1)NC(=O)C2=C(C)C |
| 116 to 118 | CCC(CC)c1ccc(Cl)c2nc(Nc3ccc(OC)nc3OC)n(CCCCO)c12 |

| melting point [°C] | SMILES |
| --- | --- |
| 193 | CC(C)(C)CC(=O)N[C@H]1CC[C@H](CCN2CCN(c3nccc4c3OCC4)CC2)CC1 |
| 86 to 89 | O=C(Nc1ccc(Cl)c(Cl)c1)OCCCC(O)c1ccccc1 (stereo unspecified) |
| 226 to 230 | Cc1ncc2c(c1OCC(=O)O)COC2c1ccc(Cl)cc1 (stereo unspecified) |
| 136 to 138 | COC(=O)c1ccc(OCC2CC(=O)N(c3ccc(N)cc3)C2)cc1 (stereo unspecified) |
| 165 to 167 | COc1cc2nc(N3CCN(C(=O)C4CCc5ccccc5O4)CC3)nc(N)c2cc1OC (stereo unspecified) |
| 201 to 202 | CS(=O)(=O)c1nc2ncc(Cl)cc2s1 |
| 233 to 234 | O=C(O)Cn1cc(Cc2nc3cc(C(F)(F)F)ccc3s2)c2ccccc21 |
| 245 to 247 | CCOC(=O)NC(=O)C(C#N)=CNc1c(Cl)cc(Cl)cc1Cl |
| 239 to 241 | COC(=O)c1cc(Cl)cc2c1OCC(=O)N2 |
| 148 to 151 | CN(Cc1cc2c(=O)c(C(=O)NCc3ccc(Cl)cc3)cn(C)c2o1)CC(O)c1cnccn1 (single isomer, unassigned; (+)) |
| 93 to 94 | C=C(C)C(=O)NCCCNC(=O)CC(C)=O |
| 98 to 100 | CC(C)(C)OC(=O)C(=NO)C(=O)CCOCc1ccccc1 |
| 42 to 44 | CCOC(=O)COc1c(C)c(C(F)(F)F)nc(C(F)(F)F)c1C(=O)OCC |
| 169 to 171 | OCc1ccc(OCc2cn3c(Cl)cccc3n2)cc1 |
| 273 to 276 | COC(=O)c1ccc2c(c1)N(C)C(=O)c1cccnc1N2 |
| 75 to 77 | COc1cc(NC(C)CCCN2C(=O)c3ccccc3C2=O)c2ncccc2c1Oc1ccc(Cl)cc1 (stereo unspecified) |
| > 190 | O=C(O)[C@@H]1CN(CCn2c(=O)ccc3c(F)cc(F)cc32)CC[C@H]1NCc1cc2c(cn1)OCCO2 |
| 223 to 224 | CCOc1cc(CN2CCN(c3ccc(C(=O)NC4CC4)cc3C)CC2)cc2c1OC(C)C(=O)N2 (stereo unspecified) |
| 212 | CN(C)C(=O)c1ccc(-c2ccc(NC(=O)Nc3cccc(C(F)(F)F)c3)c(-c3n[nH]c(=O)[nH]3)c2)cc1 |
| 96 to 97 | CN(C)CCN(C(=O)c1cccc([N+](=O)[O-])c1Br)c1ccnc2cc3c(cc12)OCO3 |
| 146 to 148 | CC(=O)c1sc(N2CCN(CC3CC3(F)F)C2=O)nc1C (stereo unspecified) |
| 191 to 192 | COc1cc(NC(=O)Nc2ccc(N3CCN(C(=O)Nc4cc(OCCO)ccc4Cl)CC3)cc2)cc(OC)c1 |
| 198 to 200 | CNc1nc(-c2cccc(N(C)C(=O)c3ccccc3)c2)c2cc(OC)c(OC)cc2n1 |
